Tests used:
Malme-3M = experiment: Cytotoxicity against human MALME-3M cells assessed as cell growth inhibition at 10 uM after 48 hrs by SRB assay relative to control; format: functional; conditions: read-out: GI
SK-MEL-5 = experiment: Cytotoxicity against human SK-MEL-5 cells assessed as cell growth inhibition at 10 uM after 48 hrs by SRB assay relative to control; format: functional; conditions: SK-MEL-5, 48 h, read-out: GI
[1] = Cytotoxicity against human SNB19 cells assessed as cell growth inhibition at 10 uM after 48 hrs by SRB assay relative to control; format: functional; conditions: SNB-19, 48 h, read-out: GI
M14 = experiment: Cytotoxicity against human M14 cells assessed as cell growth inhibition at 10 uM after 48 hrs by SRB assay relative to control; format: functional; conditions: M14, 48 h, read-out: GI
[2] = Cytotoxicity against human OVCAR3 cells assessed as cell growth inhibition at 10 uM after 48 hrs by SRB assay relative to control; format: functional; conditions: OVCAR-3, 48 h, read-out: GI
[3] = Cytotoxicity against human HCT15 cells assessed as cell growth inhibition at 10 uM after 48 hrs by SRB assay relative to control; format: functional; conditions: HCT-15, 48 h, read-out: GI
[4] = Cytotoxicity against human RXF393 cells assessed as cell growth inhibition at 10 uM after 48 hrs by SRB assay relative to control; format: functional; conditions: RXF 393, 48 h, read-out: GI
[5] = Cytotoxicity against human OVCAR5 cells assessed as cell growth inhibition at 10 uM after 48 hrs by SRB assay relative to control; format: functional; conditions: OVCAR-5, 48 h, read-out: GI
[6] = Cytotoxicity against human HCC2998 cells assessed as cell growth inhibition at 10 uM after 48 hrs by SRB assay relative to control; format: functional; conditions: HCC 2998, 48 h, read-out: GI
[7] = Cytotoxicity against human PC3 cells assessed as cell growth inhibition at 10 uM after 48 hrs by SRB assay relative to control; format: functional; conditions: PC-3, 48 h, read-out: GI
SN12C = experiment: Cytotoxicity against human SN12C cells assessed as cell growth inhibition at 10 uM after 48 hrs by SRB assay relative to control; format: functional; conditions: read-out: GI
[8] = Cytotoxicity against human DU145 cells assessed as cell growth inhibition at 10 uM after 48 hrs by SRB assay relative to control; format: functional; conditions: DU-145, 48 h, read-out: GI
T47D = experiment: Cytotoxicity against human T47D cells assessed as cell growth inhibition at 10 uM after 48 hrs by SRB assay relative to control; format: functional; conditions: read-out: GI
[9] = Cytotoxicity against human SKOV3 cells assessed as cell growth inhibition at 10 uM after 48 hrs by SRB assay relative to control; format: functional; conditions: SK-OV-3, 48 h, read-out: GI
ACHN = experiment: Cytotoxicity against human ACHN cells assessed as cell growth inhibition at 10 uM after 48 hrs by SRB assay relative to control; format: functional; conditions: read-out: GI
[10] = molecular target: Phosphatidylinositol 4,5-bisphosphate 3-kinase catalytic subunit gamma isoform (Homo sapiens) (UniProt P48736); experiment: Inhibition of PI3Kgamma (unknown origin) at 10 uM incubated for 60 mins by kinase-glo luminescence assay
[11] = Cytotoxicity against human IGROV1 cells assessed as cell growth inhibition at 10 uM after 48 hrs by SRB assay relative to control; format: functional; conditions: IGROV-1, 48 h, read-out: GI
[12] = Cytotoxicity against human HCT116 cells assessed as cell growth inhibition at 10 uM after 48 hrs by SRB assay relative to control; format: functional; conditions: HCT-116, 48 h, read-out: GI
[13] = Cytotoxicity against human SF295 cells assessed as cell growth inhibition at 10 uM after 48 hrs by SRB assay relative to control; format: functional; conditions: SF-295, 48 h, read-out: GI
[14] = Cytotoxicity against human SF539 cells assessed as cell growth inhibition at 10 uM after 48 hrs by SRB assay relative to control; format: functional; conditions: SF-539, 48 h, read-out: GI
[15] = Cytotoxicity against human MOLT4 cells assessed as cell growth inhibition at 10 uM after 48 hrs by SRB assay relative to control; format: functional; conditions: MOLT-4, 48 h, read-out: GI
[16] = Cytotoxicity against human UACC62 cells assessed as cell growth inhibition at 10 uM after 48 hrs by SRB assay relative to control; format: functional; conditions: UACC-62, 48 h, read-out: GI
A549 = experiment: Cytotoxicity against human A549 cells assessed as cell growth inhibition at 10 uM after 48 hrs by SRB assay relative to control; format: functional; conditions: A549, 48 h, read-out: GI
MCF7 = experiment: Cytotoxicity against human MCF7 cells assessed as cell growth inhibition at 10 uM after 48 hrs by SRB assay relative to control; format: functional; conditions: MCF7, 48 h, read-out: GI
HT-29 = experiment: Cytotoxicity against human HT-29 cells assessed as cell growth inhibition at 10 uM after 48 hrs by SRB assay relative to control; format: functional; conditions: HT-29, 48 h, read-out: GI
SK-MEL-2 = experiment: Cytotoxicity against human SK-MEL-2 cells assessed as cell growth inhibition at 10 uM after 48 hrs by SRB assay relative to control; format: functional; conditions: SK-MEL-2, 48 h, read-out: GI
[17] = Cytotoxicity against human HL-60(TB) cells assessed as cell growth inhibition at 10 uM after 48 hrs by SRB assay relative to control; format: functional; conditions: HL-60, 48 h, read-out: GI
[18] = Cytotoxicity against human RPMI8226 cells assessed as cell growth inhibition at 10 uM after 48 hrs by SRB assay relative to control; format: functional; conditions: RPMI-8226, 48 h, read-out: GI
K562 = experiment: Cytotoxicity against human K562 cells assessed as cell growth inhibition at 10 uM after 48 hrs by SRB assay relative to control; format: functional; conditions: K562, 48 h, read-out: GI
MDA-MB-435 = experiment: Cytotoxicity against human MDA-MB-435 cells assessed as cell growth inhibition at 10 uM after 48 hrs by SRB assay relative to control; format: functional; conditions: MDA-MB-435, 48 h, read-out: GI
[19] = Cytotoxicity against human SW620 cells assessed as cell growth inhibition at 10 uM after 48 hrs by SRB assay relative to control; format: functional; conditions: SW-620, 48 h, read-out: GI
NCI-H460 = experiment: Cytotoxicity against human NCI-H460 cells assessed as cell growth inhibition at 10 uM after 48 hrs by SRB assay relative to control; format: functional; conditions: NCI-H460, 48 h, read-out: GI
MDA-MB-231 = experiment: Cytotoxicity against human MDA-MB-231 cells assessed as cell growth inhibition at 10 uM after 48 hrs by SRB assay relative to control; format: functional; conditions: MDA-MB-231, 48 h, read-out: GI
U-251 = experiment: Cytotoxicity against human U251 cells assessed as cell growth inhibition at 10 uM after 48 hrs by SRB assay relative to control; format: functional; conditions: U-251, 48 h, read-out: GI
[20] = Cytotoxicity against human NCI-ADR-RES cells assessed as cell growth inhibition at 10 uM after 48 hrs by SRB assay relative to control; format: functional; conditions: read-out: GI

Sequence of Phosphatidylinositol 4,5-bisphosphate 3-kinase catalytic subunit gamma isoform (Homo sapiens) (P48736 whole entry, looked up, canonical isoform): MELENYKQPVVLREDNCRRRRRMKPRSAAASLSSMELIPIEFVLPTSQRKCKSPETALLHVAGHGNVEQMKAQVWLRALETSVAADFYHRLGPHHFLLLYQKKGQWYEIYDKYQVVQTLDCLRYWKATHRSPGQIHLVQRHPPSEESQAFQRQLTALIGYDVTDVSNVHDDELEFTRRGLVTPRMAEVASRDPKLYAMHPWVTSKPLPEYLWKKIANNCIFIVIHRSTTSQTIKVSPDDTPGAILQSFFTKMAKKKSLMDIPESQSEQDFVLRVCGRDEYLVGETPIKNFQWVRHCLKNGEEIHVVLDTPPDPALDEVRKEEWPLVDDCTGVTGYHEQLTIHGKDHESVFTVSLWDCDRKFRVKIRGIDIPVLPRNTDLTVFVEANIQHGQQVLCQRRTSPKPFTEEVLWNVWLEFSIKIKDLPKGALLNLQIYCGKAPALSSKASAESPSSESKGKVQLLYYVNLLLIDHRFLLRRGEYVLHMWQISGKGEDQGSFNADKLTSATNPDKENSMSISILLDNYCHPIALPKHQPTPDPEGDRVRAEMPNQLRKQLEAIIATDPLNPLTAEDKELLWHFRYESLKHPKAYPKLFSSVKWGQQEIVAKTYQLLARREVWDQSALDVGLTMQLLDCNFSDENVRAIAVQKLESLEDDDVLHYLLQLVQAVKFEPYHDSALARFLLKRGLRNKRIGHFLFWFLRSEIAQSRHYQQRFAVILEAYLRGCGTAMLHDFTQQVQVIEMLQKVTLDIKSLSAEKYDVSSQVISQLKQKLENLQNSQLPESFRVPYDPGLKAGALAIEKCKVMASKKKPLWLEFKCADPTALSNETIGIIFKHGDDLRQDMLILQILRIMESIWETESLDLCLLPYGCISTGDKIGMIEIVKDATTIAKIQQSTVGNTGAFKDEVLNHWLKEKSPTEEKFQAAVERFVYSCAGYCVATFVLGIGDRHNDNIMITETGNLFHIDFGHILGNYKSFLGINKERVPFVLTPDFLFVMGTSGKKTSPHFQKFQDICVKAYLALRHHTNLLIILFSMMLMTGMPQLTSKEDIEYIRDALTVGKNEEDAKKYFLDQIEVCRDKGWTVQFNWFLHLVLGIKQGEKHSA

Compound | inhibition of growth at 10 µM (Malme-3M) [%] | inhibition of growth at 10 µM (SK-MEL-5) [%] | inhibition of growth at 10 µM [1] [%] | inhibition of growth at 10 µM (M14) [%] | inhibition of growth at 10 µM [2] [%] | inhibition of growth at 10 µM [3] [%] | inhibition of growth at 10 µM [4] [%] | inhibition of growth at 10 µM [5] [%] | inhibition of growth at 10 µM [6] [%] | inhibition of growth at 10 µM [7] [%] | inhibition of growth at 10 µM (SN12C) [%] | inhibition of growth at 10 µM [8] [%] | inhibition of growth at 10 µM (T47D) [%] | inhibition of growth at 10 µM [9] [%] | inhibition of growth at 10 µM (ACHN) [%] | inhibition [10] [%] | inhibition of growth at 10 µM [11] [%] | inhibition of growth at 10 µM [12] [%] | inhibition of growth at 10 µM [13] [%] | inhibition of growth at 10 µM [14] [%] | other results
COc1ccc(-c2cccc3c(=O)nc(N4CCOCC4)oc23)cc1 | -4.08 | 9.19 | -0.25 | -0.43 | 5.94 | 3.13 | 7.94 | 4.76 | -5.73 | 14.9 | 8.75 | 1.58 | 38.5 | -6.51 | 6.19 | 7 | 0.87 | 7.05 | 2.78 | -2.27 | inhibition of growth at 10 µM [15]: 1.48%; inhibition of growth at 10 µM [16]: 19.3%; inhibition of growth at 10 µM (A549): 5.88%; inhibition of growth at 10 µM (MCF7): 17.4%; inhibition of growth at 10 µM (HT-29): 10.8%; inhibition of growth at 10 µM (SK-MEL-2): -9.8%; inhibition of growth at 10 µM [17]: 7.35%; inhibition of growth at 10 µM [18]: -0.31%; inhibition of growth at 10 µM (K562): 7.02%; inhibition of growth at 10 µM (MDA-MB-435): 1.03%; inhibition of growth at 10 µM [19]: 0.87%; inhibition of growth at 10 µM (NCI-H460): -5.69%; inhibition of growth at 10 µM (MDA-MB-231): 3.13%; inhibition of growth at 10 µM (U-251): 0.83%; inhibition of growth at 10 µM [20]: 9.12%
O=c1nc(N2CCOCC2)oc2c(-c3cccs3)cccc12 | 16.1 | 13.3 | 5.86 | 0.86 | 2.61 | 0.33 | 9.88 | 4.55 | -4.81 | 17.2 | -3.08 | -2.35 | 17.8 | -0.56 | 2.88 | 16 | 8.05 | 2.65 | -0.99 | 1.52 | inhibition of growth at 10 µM [15]: -0.6%; inhibition of growth at 10 µM [16]: 20.9%; inhibition of growth at 10 µM (A549): 5.77%; inhibition of growth at 10 µM (MCF7): 21.9%; inhibition of growth at 10 µM (HT-29): 6.61%; inhibition of growth at 10 µM (SK-MEL-2): -7.08%; inhibition of growth at 10 µM [17]: 3.68%; inhibition of growth at 10 µM [18]: -0.55%; inhibition of growth at 10 µM (K562): 0.8%; inhibition of growth at 10 µM (MDA-MB-435): -0.12%; inhibition of growth at 10 µM [19]: 1.09%; inhibition of growth at 10 µM (NCI-H460): -5.8%; inhibition of growth at 10 µM (MDA-MB-231): -6.21%; inhibition of growth at 10 µM (U-251): 4.68%; inhibition of growth at 10 µM [20]: 11%
NC(=O)c1ccc(-c2cccc3c(=O)nc(N4CCOCC4)oc23)cc1 | 14.6 | 2.24 | 0.88 | 2.25 | 0.57 | -2.19 | -4.38 | 3.19 | -1.23 | 10.1 | -3.74 | -3.19 | 12.2 | -3.41 | -0.43 | 10 | -3.1 | -3.97 | 6.07 | -1.74 | inhibition of growth at 10 µM [15]: -2.82%; inhibition of growth at 10 µM [16]: 7.72%; inhibition of growth at 10 µM (A549): -0.08%; inhibition of growth at 10 µM (MCF7): 9.68%; inhibition of growth at 10 µM (HT-29): -0.51%; inhibition of growth at 10 µM (SK-MEL-2): -2.17%; inhibition of growth at 10 µM [17]: 2.5%; inhibition of growth at 10 µM [18]: -4.18%; inhibition of growth at 10 µM (K562): -10.4%; inhibition of growth at 10 µM (MDA-MB-435): -6.9%; inhibition of growth at 10 µM [19]: -3.57%; inhibition of growth at 10 µM (NCI-H460): -5.06%; inhibition of growth at 10 µM (MDA-MB-231): 8.08%; inhibition of growth at 10 µM (U-251): 2.31%; inhibition of growth at 10 µM [20]: 2.66%
O=c1nc(N2CCOCC2)oc2c(-c3cccc4c3sc3ccccc34)cccc12 | 12.4 | 17.2 | 18.5 | 3.09 | 13.7 | 13.4 | 38.4 | 18.8 | 3.55 | 40.5 | 18 | 5.8 | 42.8 | -11.4 | 22.3 | 27 | 15 | 18.7 | 11 | 15.1 | inhibition of growth at 10 µM [15]: 10.4%; inhibition of growth at 10 µM [16]: 45.6%; inhibition of growth at 10 µM (A549): 22.5%; inhibition of growth at 10 µM (MCF7): 30.5%; inhibition of growth at 10 µM (HT-29): 16.9%; inhibition of growth at 10 µM (SK-MEL-2): 9.49%; inhibition of growth at 10 µM [17]: 11.5%; inhibition of growth at 10 µM [18]: 19.7%; inhibition of growth at 10 µM (K562): 20.6%; inhibition of growth at 10 µM (MDA-MB-435): 4.77%; inhibition of growth at 10 µM [19]: 5.95%; inhibition of growth at 10 µM (NCI-H460): 4.79%; inhibition of growth at 10 µM (MDA-MB-231): 29.5%; inhibition of growth at 10 µM (U-251): 17.8%; inhibition of growth at 10 µM [20]: 19.2%
